In experiment [1] the target is T1, α1B Human Adrenergic Receptor (Homo sapiens, UniProt P35368).
T1 construct: The entire coding region of α1B (1563 bp); expressed in transfected cells
T1 sequence (P35368 1-520): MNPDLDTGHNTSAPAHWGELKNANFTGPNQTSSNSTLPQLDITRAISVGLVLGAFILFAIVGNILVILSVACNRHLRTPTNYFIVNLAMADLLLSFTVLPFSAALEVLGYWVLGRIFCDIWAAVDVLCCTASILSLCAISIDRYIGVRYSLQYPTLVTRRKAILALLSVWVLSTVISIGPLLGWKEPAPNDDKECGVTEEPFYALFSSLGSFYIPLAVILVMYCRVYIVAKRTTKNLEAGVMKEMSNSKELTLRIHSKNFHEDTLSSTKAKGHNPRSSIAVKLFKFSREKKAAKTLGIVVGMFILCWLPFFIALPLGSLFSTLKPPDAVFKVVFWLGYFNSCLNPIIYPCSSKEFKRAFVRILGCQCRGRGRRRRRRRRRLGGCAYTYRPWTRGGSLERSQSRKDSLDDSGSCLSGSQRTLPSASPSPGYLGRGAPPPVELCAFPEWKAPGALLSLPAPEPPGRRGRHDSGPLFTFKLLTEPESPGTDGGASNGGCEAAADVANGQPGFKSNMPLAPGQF
Description: Radioligand binding, [3H]prazosin, cloned human α1B adrenergic receptor. Put shortly: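 Membranes from stably transfected LM(tk−) cells, resuspended in 50 mM Tris-HCl, 1 mM MgCl2, 0.1% ascorbic acid, pH 7.5, were incubated with 0.5 nM [3H]prazosin for 20 min at 37° C. Nonspecific binding defined with 10 μM phentolamine; bound ligand separated by GF/B filtration.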

The next experiment deals with T2, α2B receptor (Homo sapiens, UniProt P18089).
T2 construct: host or cells: LM(tk-) cells, line L-NGC-α2B
T2 sequence (P18089 1-450): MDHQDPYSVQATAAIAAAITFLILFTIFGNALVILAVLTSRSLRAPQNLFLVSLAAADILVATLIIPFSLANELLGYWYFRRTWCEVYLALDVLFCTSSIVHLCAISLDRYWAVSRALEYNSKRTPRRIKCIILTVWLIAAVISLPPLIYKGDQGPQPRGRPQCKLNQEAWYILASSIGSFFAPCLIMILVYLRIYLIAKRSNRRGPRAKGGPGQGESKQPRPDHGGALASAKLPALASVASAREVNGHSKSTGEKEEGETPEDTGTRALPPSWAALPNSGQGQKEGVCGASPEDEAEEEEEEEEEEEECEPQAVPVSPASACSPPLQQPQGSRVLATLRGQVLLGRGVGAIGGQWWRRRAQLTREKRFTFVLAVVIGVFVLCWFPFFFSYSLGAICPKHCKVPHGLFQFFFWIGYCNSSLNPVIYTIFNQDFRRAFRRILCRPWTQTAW
Description: Competition binding, [3H]rauwolscine, human α2B receptor. The note with it: [3H]rauwolscine. The gist of the method: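 Cell lysates from stably transfected LM(tk−) lines are resuspended in 25 mM glycylglycine (pH 7.6 at room temperature), incubated to equilibrium with 0.5 nM [3H]rauwolscine plus competitor, then filtered through GF/B filters; 10 μM phentolamine defines nonspecific binding.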

Experiment [2] concerns the target T3, α1C Human Adrenergic Receptor (Homo sapiens, UniProt P35348).
T3 construct: The entire coding region of α1C (1401 bp); expressed in transfected cells
T3 sequence (P35348 1-466): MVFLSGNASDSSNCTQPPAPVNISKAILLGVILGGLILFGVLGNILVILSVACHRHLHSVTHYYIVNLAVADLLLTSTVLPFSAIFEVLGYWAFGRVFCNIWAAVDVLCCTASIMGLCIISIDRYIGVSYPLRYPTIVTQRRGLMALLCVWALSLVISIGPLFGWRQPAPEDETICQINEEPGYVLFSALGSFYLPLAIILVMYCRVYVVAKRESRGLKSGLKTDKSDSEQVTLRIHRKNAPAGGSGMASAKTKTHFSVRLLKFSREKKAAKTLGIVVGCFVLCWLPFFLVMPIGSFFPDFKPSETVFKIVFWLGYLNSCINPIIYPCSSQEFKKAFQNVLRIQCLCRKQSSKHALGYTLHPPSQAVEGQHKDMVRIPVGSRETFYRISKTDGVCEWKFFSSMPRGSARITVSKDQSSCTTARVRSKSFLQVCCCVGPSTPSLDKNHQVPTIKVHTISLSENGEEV
As to the kind of experiment: Radioligand binding, [3H]prazosin, cloned human α1C adrenergic receptor. Put shortly: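 Stably transfected mouse LM(tk−) fibroblast membranes bearing the cloned human α1C adrenoceptor served as receptor source. Specific binding was taken as the portion of 0.5 nM [3H]prazosin displaceable by 10 μM phentolamine after 20 min at 37° C., pH 7.5, in Mg2+/ascorbate-containing Tris buffer.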

Where [3] appears, read: cloned human receptor in LM(tk-) cell membranes, SEM and n in lines below, read-out: pKi alpha-1 1b (converted).
Setting [4] is: LM(tk-) cell line L-NGC-α2B, SEM and n in lines below, read-out: pKi alpha-2 2b (converted).
Where [5] appears, read: cloned human receptor in LM(tk-) cell membranes, SEM and n in lines below, read-out: pKi alpha-1 1c (converted).
Setting [6] is: cloned human receptor in LM(tk-) cell membranes, SEM and n in lines below.
Where [7] appears, read: LM(tk-) cell line L-NGC-α2B, SEM and n in lines below.
Where [8] appears, read: cloned human receptor, LM(tk-) cell membranes, mean, read-out: PKi alpha-1 1b (converted).
Where [9] appears, read: human receptor, LM(tk-) cell lysates, mean, read-out: PKi alpha-2 2b (converted).
Setting [10] is: cloned human receptor, LM(tk-) cell membranes, mean, read-out: PKi alpha-1 1c (converted).
[11] abbreviates: cloned human receptor, LM(tk-) cell membranes, mean.
[12] abbreviates: cloned human α1B receptor, LM(tk-) cell membranes, read-out: PKi alpha-1 1b (converted).
The mark [13] stands for this setting: human α2B receptor, LM(tk-) cells, read-out: PKi alpha-2 2b (converted).
Setting [14] is: cloned human α1C receptor, LM(tk-) cell membranes, read-out: PKi alpha-1 1c (converted).

Each structure is given as a SMILES string. Where a name gives a salt, the structure may show the parent alone. Read-outs that look alike come from different tables or passages of the source.

The values that follow come from patent US6608086B2, “Dihydropyridines and new uses thereof” (Synaptic Pharmaceutical Corporation, priority 1993, dated 2003).

With `CC1=C(C(N)=O)C(c2ccc([N+](=O)[O-])cc2)C(C(=O)NCCCN2CCC(c3ccccc3)CC2)=C(C)N1` (stereo not drawn) [Example 60, 5-Carboxamido-1,4-dihydro-2,6-dimethyl-4-(4-nitrophenyl)-3-{N-[3-(4-phenylpiperidin-1-yl)propyl]}carboxamidopyridine], the Ki is 0.0776 µM in experiment [1] (setting [3]), 0.0692 µM on α2B receptor (setting [4]) and 0.00275 µM in experiment [2] (setting [5]).

On to `COC(=O)C1=C(C)NC(c2ccccc2)=C(C(=O)NCCCN2CCC(c3ccccc3)CC2)C1c1ccc([N+](=O)[O-])cc1.Cl` (stereo not drawn) [Example 79, 1,4-Dihydro-5-methoxycarbonyl-6-methyl-4-(4-nitro)phenyl-2-phenyl-3-(N-(3-(4-phenylpiperidin-1-yl)propyl)) carboxamidopyridine hydrochloride], for which, in experiment [1] (setting [6]), the “pKi alpha-1 1b” value was 7.33. In addition, at α2B receptor (setting [7]), the “pKi alpha-2 2b” value came to 7.28. In experiment [2] (setting [6]), the “pKi alpha-1 1c” value came out at 7.76.

In the case of `COc1cc2c(c(OC)c1)CCN(CCCNC(=O)C1=C(c3ccoc3)NC(C)=C(C(N)=O)C1c1ccc([N+](=O)[O-])cc1)C2.Cl.O` (stereo not drawn) [Example 67], the “pKi alpha-1 1b” value in experiment [1] (setting [6]) was found to be 6.18. Further, the “pKi alpha-2 2b” value on α2B receptor (setting [7]) is 5.79. The “pKi alpha-1 1c” value in experiment [2] (setting [6]) was 6.48.

In the case of `COC(=O)C1(c2ccccc2)CCN(CCCNC(=O)C2=C(CCCCN)NC(C)=C(C(C)=O)C2c2ccc([N+](=O)[O-])cc2)CC1` (stereo not drawn) [Example 178, 5-Acetyl-2-(4-aminobutyl)-1,4-dihydro-3-{N-[3-(4-methoxycarbonyl-4-phenylpiperidin-1-yl)propyl]}carboxamido-6-methyl-4-(4-nitrophenyl) pyridine], the figures for the Ki (in experiment [1] (setting [8]); on α2B receptor (setting [9]); in experiment [2] (setting [10])) were 0.417 µM, 0.759 µM and 0.00257 µM, respectively.

Regarding `COC(=O)C1=C(C)NC(C)=C(C(=O)OCCCN2CCC(c3ccccc3)CC2)C1c1ccc([N+](=O)[O-])cc1` (stereo not drawn) [Example 48, 1,4-Dihydro-5-methazycarbonyl-2,6-dimethyl-4-(4-nitrophenyl)-3-[3-(4-phenylpiperidin-1-yl)propoxy]}carbonylpyridine hydrochloride hydrate], the Ki in experiment [1] (setting [3]) was 0.00263 µM; at α2B receptor (setting [4]), 0.813 µM; in experiment [2] (setting [5]) it was 0.000525 µM.

Take `CC1=C(C(N)=O)C(c2ccc([N+](=O)[O-])cc2)C(C(=O)NCCCN2CCC(C(=O)OCCC#N)(c3ccccc3)CC2)=CN1C` (stereo not drawn) [Example 209, 5-Carboxamido-3-{N-[3-(4-(2-cyanoethoxycarbonyl)-4-phenylpiperidin-1-yl)propyl]}carboxamido-1,4-dihydro-1,6-dimethyl-4-(4-nitrophenyl) pyridine]: the “PKi alpha-1 1b” value in experiment [1] (setting [11]) came out at 5.44. Moreover, the “PKi alpha-2 2b” value at α2B receptor (human receptor, LM(tk-) cell lysates, mean) was determined as 6.46. Moreover, the “PKi alpha-1 1c” value in experiment [2] (setting [11]) came out at 8.41.

`CCC1=C(C(=O)NC2CCN(Cc3ccccc3)CC2)C(c2ccc([N+](=O)[O-])cc2)C(C(=O)OC)=C(C)N1` (stereo not drawn) [Example 75, 2-Ethyl-1,4-dihydro-5-methoxycarbonyl-6-methyl-4-(4-nitro)phenyl-3-(N-(N-phenylmethyl)piperidin-4-yl)carboxamidopyridine hydrochloride]: the Ki is 3.89 µM in experiment [1] (setting [3]), 3.09 µM at α2B receptor (setting [4]) and 0.794 µM in experiment [2] (setting [5]).

Regarding `CCOC(=O)C1(c2ccccc2)CCN(CCCNC(=O)C2=C(COCCN)NC(C)=C(C(C)=O)C2c2ccc3c(c2)OCO3)CC1` (stereo not drawn) [Example 244, 5-Acetyl-2-((2-aminoethyl)oxy)methyl-3-(N-(3-(4-ethoxycarbonyl-4-phenylpiperidin-1-yl)propyl)) carboxamido-1,4-dihydro-6-methyl-4-(3,4-methylenedioxy) phenylpyridine], the Ki is 0.513 µM in experiment [1] (setting [12]), 2.14 µM on α2B receptor (setting [13]) and 0.00347 µM in experiment [2] (setting [14]).

Regarding `COC(=O)C1=C(C)NC(C)=C(C(=O)NCCCN2CCC(c3ccccc3)CC2)C1c1ccc2c(c1)OCO2` (stereo not drawn) [Example 250], the Ki was 0.0692 µM in experiment [1] (setting [12]), 0.0398 µM on α2B receptor (setting [13]) and 0.0011 µM in experiment [2] (setting [14]).

As to `COC(=O)C1=C(C)NC(C)=C(C(=O)NCCCCN2CCC(c3ccccc3)CC2)C1c1ccc([N+](=O)[O-])cc1` (stereo not drawn) [Example 3, 1,4-Dihydro-3-methoxycarbonyl-2,6-dimethyl-4-(4-nitrophenyl)-5-{N-[4-(4-phenylpiperidin-1-yl)butyl]}carbozamidopyridine hydrochloride hydrate], the Ki in experiment [1] (setting [3]) was 0.0646 µM; at α2B receptor (setting [4]) it was 0.0224 µM; in experiment [2] (setting [5]), 0.00589 µM.

As for `CCC1=C(C(=O)NC)C(c2ccc([N+](=O)[O-])cc2)C(C(=O)NCCCN2CCC(c3ccccc3)(c3ccccc3)CC2)=C(CCCCOC)N1` (stereo not drawn) [Example 173, 6-Ethyl-1,4-dihydro-2-(4-methoxybutyl)-5-(N-methyl)carboxamido-4-(4-nitrophenyl)-3-{N-[3-(4,4-diphenylpiperidin-1-yl)propyl]}carboxamidopyridine], the Ki in experiment [1] (PKi alpha-1 1b, cloned human receptor, LM(tk-) cell membranes, mean) was 0.427 µM; at α2B receptor (PKi alpha-2 2b, human receptor, LM(tk-) cell lysates, mean), 0.955 µM; in experiment [2] (PKi alpha-1 1c, cloned human receptor, LM(tk-) cell membranes, mean) it was 0.00398 µM.

`COC(=O)C1=C(C)NC(C)=C(C(=O)NCCCN2CCC(c3ccccc3)CC2)C1c1ccc(C)cc1` (stereo not drawn) [Example 31, 1,4-Dihydro-3-methoxycarbonyl-2,6-dimethyl-4-(4-methylphenyl)-5-(N-(3-(4-phenylpiperidin-1-yl)propyl)carboxamido)pyridine]: the figures for the Ki (in experiment [1] (setting [3]); on α2B receptor (setting [4]); in experiment [2] (setting [5])) were 0.0204 µM, 0.138 µM and 0.00117 µM, respectively.

`COC(=O)C1(c2ccccc2)CCN(CCCNC(=O)C2=C(COCCN=[N+]=[N-])NC(C)=C(C(N)=O)C2c2ccc([N+](=O)[O-])cc2)CC1` (stereo not drawn) [Example 183, 2-[(2-Azidoethoxy)methyl]-5-carboxamido-1,4-dihydro-3-{N-[3-(4-methoxycarbonyl-4-phenylpiperidin-1-yl)propyl]}carboxamido-6-methyl-4-(4-nitrophenyl)pyridine]: the results for the Ki (in experiment [1] (setting [8]); on α2B receptor (setting [9]); in experiment [2] (setting [10])) were 0.229 µM, 0.724 µM and 0.000851 µM, respectively.
